Data: patent US4175081A, “5-Substituted thiadiazole ureas” (priority 1977, dated 1979)

Assays:
Crabgrass (CG) [1] = experiment: Post-emergence herbicide test; format: in vivo, Digitaria sanquinalis; details: Digitaria sanguinalis, post-emergence, 336 h, two weeks after treatment
Summary of the method: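 Crabgrass (Digitaria sanquinalis) was surface seeded individually in 3' plastic pots of potting soil, covered with screened soil, and watered by sub-irrigation in greenhouse trays. Planting was staggered so seedlings reached the target stage together. Post-emergence sprays were applied in a hood with a removable belt and fixed nozzle, and control was visually rated two weeks after treatment.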

Crabgrass (CG) [2] = experiment: Pre-emergence herbicide test; format: in vivo, Digitaria sanquinalis; details: Digitaria sanguinalis, pre-emergence, 336 h, two weeks after treatment
Summary of the method: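 Crabgrass (Digitaria sanquinalis) was surface seeded in 3' plastic pots of potting soil, covered with screened soil, and watered by sub-irrigation in greenhouse trays. Pots were seeded one day before spraying in a hood with a moving belt and fixed nozzle. Plants stayed in the greenhouse on sub-irrigation, and pre-emergence control was rated visually two weeks after treatment.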

Cotton (CT) [3] = experiment: Post-emergence herbicide test; format: in vivo, Gossypium hirsutum var. DPL smooth leaf; details: Gossypium hirsutum, post-emergence, 336 h, two weeks after treatment
Summary of the method: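 This greenhouse post-emergence test measured how well spray treatments controlled cotton. Seedlings of Gossypium hirsutum var. DPL smooth leaf, with expanded cotyledons and a first true leaf 1' in length, were sprayed with 50 ml formulations in a belt-fed spray hood. They were then returned to the greenhouse and watered only by sub-irrigation. Injury was scored visually as % control after two weeks.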

Bean (BN) [4] = experiment: Pre-emergence herbicide test; format: in vivo, Phaseolus vulgaris var. Black Valentine; details: Phaseolus vulgaris, 336 h, two weeks after treatment
Summary of the method: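 Visual injury/control ratings were taken two weeks post-spray on sub-irrigated Phaseolus vulgaris var. Black Valentine. Pots were sown a day before treatment. Pre-emergence spray delivered 8 lbs actual compound per acre (or 4 lbs/acre) at 38 gallons per acre.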

Turnip (TP) [5] = experiment: Pre-emergence herbicide test; format: in vivo, Brassica sp.; details: Brassica rapa, pre-emergence, 336 h, two weeks after treatment
Summary of the method: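 In this pre-emergence greenhouse test, turnip was seeded on the surface of potting soil in 3' plastic pots, lightly covered with screened soil, and watered from below. One day later the pots were sprayed in a belt-fed spray hood. Watering continued only by sub-irrigation, and percent control was visually scored two weeks after treatment.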

Bean (BN) [6] = experiment: Post-emergence herbicide test; format: in vivo, Phaseolus vulgaris var. Black Valentine; details: Phaseolus vulgaris, post-emergence, 336 h, two weeks after treatment
Summary of the method: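 Bean seedlings (Phaseolus vulgaris var. Black Valentine) were grown in potting soil in 3' pots until the primary leaves expanded. They were then sprayed under a hood with a removable belt and fixed nozzle, using 50 ml formulations. Afterward they were returned to the greenhouse and watered only by sub-irrigation. Percent control was judged visually two weeks after treatment.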

Amaranth pigweed (PW) = experiment: Pre-emergence herbicide test; format: in vivo, Amaranthus retroflexus; details: 336 h, two weeks after treatment
Protocol: All crop and weed species were planted individually in 3' plastic pots containing potting soil. Four seeds each of corn, cotton, and snapbeans were seeded to a depth equal to the diameter of the seed. All other species were surface seeded and sprinkled with screened soil in an amount sufficient to cover the seed. Immediately after planting, all pots were watered by sub-irrigation in greenhouse trays. Pots for the pre-emergence phase were seeded one day before treatment.
Compounds were tested at rates of application equivalent to 8 lbs. of actual compound per acre in a spray volume of 38 gallons per acre. Spray hood constants required to deliver the above volume are as follows:
Formulations for spray applications were prepared in 50 ml volumes with the following three components:
Formulations for the 4 lbs/acre rate were prepared by adjusting the amount of active ingredient accordingly.
Spray applications were made in a hood containing a removable belt and fixed spray nozzle. For passage through the spray hood, one pot of each specie (pre-emergence phase) was placed on the rear half of the flat. Treatments were removed to the greenhouse after spraying. Watering during the observation period was done only by sub-irrigation.
Two weeks after treatment, pre- and post-emergence injury or control was visually rated, and the results were as shown in the following tables. Pre-emergence data are provided in TABLE III and post-emergence data are provided in TABLE IV, for compounds having the formula illustrated in TABLE I. Correspondingly, pre-emergence and post-emergence data, respectively, are set forth in TABLES V AND VI, for compounds having the formula illustrated in TABLE II.

Cotton (CT) [7] = experiment: Pre-emergence herbicide test; format: in vivo, Gossypium hirsutum var. DPL smooth leaf; details: Gossypium hirsutum, 336 h, two weeks after treatment
Summary of the method: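 Visual injury/control ratings were taken at two weeks post-spray. Pots seeded a day earlier received compound pre-emergence at 8 lbs/acre, or 4 lbs/acre, in a 38 gallon/acre spray volume, and were then held in the greenhouse, watered only from below.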

Barnyard grass (BG) = experiment: Pre-emergence herbicide test; format: in vivo; details: Echinochloa crus-galli, 336 h, two weeks after treatment
Summary of the method: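 Greenhouse pre-emergence spray test: pots seeded one day before treatment received compound at rates of 8 or 4 lb/acre (38 gal/acre). Visual injury/control scores for Echinochloa crus-galli taken at two weeks, with watering by sub-irrigation only.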

Johnson grass (JG) = experiment: Pre-emergence herbicide test; format: in vivo, Sorgum helepense; details: Sorghum halepense, 336 h, two weeks after treatment
Summary of the method: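 Visual injury or control rating two weeks post-treatment, after pre-emergence spray of 8 or 4 lbs active per acre (38 gal/acre) onto pots sown the previous day. Greenhouse watering by sub-irrigation only.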

Turnip (TP) [8] = experiment: Post-emergence herbicide test; format: in vivo, Brassica sp.; details: Brassica rapa, post-emergence, 336 h, two weeks after treatment
Summary of the method: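 A greenhouse post-emergence herbicide test on turnip. Seeds were sown on the surface of potting soil in 3' plastic pots, lightly covered with screened soil and watered from below. Planting was timed so seedlings had 1 or 2 true leaves above the cotyledons at spraying, done in a hood with a fixed nozzle. Control or injury was scored by eye after two weeks.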

Corn (CN) = experiment: Pre-emergence herbicide test; format: in vivo; details: Zea mays, 336 h, two weeks after treatment
Summary of the method: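 Visual injury/control ratings were made 2 weeks post-spray on corn pots seeded (4 seeds, seed-diameter depth) the day before treatment. Application was a belt-hood spray of 38 gal/acre delivering 8 lbs active per acre, with a 4 lbs/acre rate also formulated. Watering was by sub-irrigation throughout.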

Question: What does the source list for `CCCCS(=O)(=O)c1nnc(N(C)C(=O)NC)s1` [Example 92]?
Answer: pest or weed control at 560.425 g/ha (Crabgrass (CG) [1]; 0.5 lb/acre): 30%; pest or weed control at 1120.85 g/ha (Crabgrass (CG) [1]; 1 lb/acre): 30%; pest or weed control (Crabgrass (CG) [1]; 2 lb/acre): 90%; pest or weed control at 4483.4 g/ha (Crabgrass (CG) [1]; 4 lb/acre): 90%; pest or weed control at 560.425 g/ha (Crabgrass (CG) [2]; 0.5 lb/acre): 40%; pest or weed control at 1120.85 g/ha (Crabgrass (CG) [2]; 1 lb/acre): 60%; pest or weed control at 2241.7 g/ha (Crabgrass (CG) [2]; 2 lb/acre): 100%; pest or weed control at 4483.4 g/ha (Crabgrass (CG) [2]; 4 lb/acre): 100%; pest or weed control at 560.425 g/ha (Cotton (CT) [3]; 0.5 lb/acre): 100%; pest or weed control at 1120.85 g/ha (Cotton (CT) [3]; 1 lb/acre): 100%; pest or weed control at 2241.7 g/ha (Cotton (CT) [3]; 2 lb/acre): 100%; pest or weed control at 4483.4 g/ha (Cotton (CT) [3]; 4 lb/acre): 100%; pest or weed control at 560.425 g/ha (Bean (BN) [4]; 0.5 lb/acre): 10%; pest or weed control at 1120.85 g/ha (Bean (BN) [4]; 1 lb/acre): 10%; pest or weed control at 2241.7 g/ha (Bean (BN) [4]; 2 lb/acre): 10%; pest or weed control at 4483.4 g/ha (Bean (BN) [4]; 4 lb/acre): 10%; pest or weed control at 560.425 g/ha (Turnip (TP) [5]; 0.5 lb/acre): 10%; pest or weed control at 1120.85 g/ha (Turnip (TP) [5]; 1 lb/acre): 60%; pest or weed control at 2241.7 g/ha (Turnip (TP) [5]; 2 lb/acre): 90%; pest or weed control at 4483.4 g/ha (Turnip (TP) [5]; 4 lb/acre): 90%; pest or weed control at 560.425 g/ha (Bean (BN) [6]; 0.5 lb/acre): 70%; pest or weed control at 1120.85 g/ha (Bean (BN) [6]; 1 lb/acre): 80%; pest or weed control at 2241.7 g/ha (Bean (BN) [6]; 2 lb/acre): 90%; pest or weed control at 4483.4 g/ha (Bean (BN) [6]; 4 lb/acre): 100%; pest or weed control at 560.425 g/ha (Amaranth pigweed (PW); 0.5 lb/acre): 10%; pest or weed control at 1120.85 g/ha (Amaranth pigweed (PW); 1 lb/acre): 10%; pest or weed control at 2241.7 g/ha (Amaranth pigweed (PW); 2 lb/acre): 30%; pest or weed control at 4483.4 g/ha (Amaranth pigweed (PW); 4 lb/acre): 50%; pest or weed control at 560.425 g/ha (Cotton (CT) [7]; 0.5 lb/acre): 10%; pest or weed control at 1120.85 g/ha (Cotton (CT) [7]; 1 lb/acre): 10%; pest or weed control at 2241.7 g/ha (Cotton (CT) [7]; 2 lb/acre): 10%; pest or weed control at 4483.4 g/ha (Cotton (CT) [7]; 4 lb/acre): 10%; pest or weed control at 560.425 g/ha (Barnyard grass (BG); 0.5 lb/acre): 10%; pest or weed control at 1120.85 g/ha (Barnyard grass (BG); 1 lb/acre): 50%; pest or weed control at 2241.7 g/ha (Barnyard grass (BG); 2 lb/acre): 70%; pest or weed control at 4483.4 g/ha (Barnyard grass (BG); 4 lb/acre): 90%; pest or weed control at 560.425 g/ha (Johnson grass (JG); 0.5 lb/acre): 10%; pest or weed control at 1120.85 g/ha (Johnson grass (JG); 1 lb/acre): 10%; pest or weed control at 2241.7 g/ha (Johnson grass (JG); 2 lb/acre): 30%; pest or weed control at 4483.4 g/ha (Johnson grass (JG); 4 lb/acre): 60%; pest or weed control at 560.425 g/ha (Turnip (TP) [8]; 0.5 lb/acre): 100%; pest or weed control at 1120.85 g/ha (Turnip (TP) [8]; 1 lb/acre): 100%; pest or weed control at 2241.7 g/ha (Turnip (TP) [8]; 2 lb/acre): 100%; pest or weed control at 4483.4 g/ha (Turnip (TP) [8]; 4 lb/acre): 100%; pest or weed control at 560.425 g/ha (Corn (CN); 0.5 lb/acre): 10%; pest or weed control at 1120.85 g/ha (Corn (CN); 1 lb/acre): 10%; pest or weed control at 2241.7 g/ha (Corn (CN); 2 lb/acre): 10%; pest or weed control at 4483.4 g/ha (Corn (CN); 4 lb/acre): 10%
